Reference: patent publication US9828351B2, “Enzyme interacting agents” (MONASH UNIVERSITY, priority 2014, dated 2017)

How the values were obtained:
[1] = tested on: PC3 prostate cancer cell lines; experiment: Anticancer activity in PC3 cell line, CellTitre AQueous One cell viability assay; format: cell-based; conditions: Homo sapiens, PC-3; concentration required to inhibit cell proliferation by 50%; 72 hours
Experimental: Measurement of Anticancer Activity in PC3 Cell Line Assays
PC3 prostate cancer cell lines were cultured in DMEM (containing 10% fetal calf serum and penicillin-streptomycin).
Before treatment with drug compounds, cells were plated at 2,500 cells/well in 96 well plates and incubated at 37° C. with 5% CO2 in a humidified incubator for 24 hours prior. Cells were only plated in columns 3-10 and rows C—F to ensure uniform humidity and warmth across all wells. The remaining wells were filled with 100 μL of phosphate buffered saline.
Drug stock solutions (50 or 10 mM) were diluted×1000 in media to a final concentration of either 50 μM or 10 μM with a DMSO vehicle concentration of 0.1%.
Cell culture supernatants were aspirated and replaced with drug containing media. Drug treatments were performed in duplicate wells, while potential plate layout-specific variation in cell growth was accounted for by addition of a vehicle control (0.1% DMSO).
Cells were then incubated with drug compounds at 37° C. with 5% CO2 in a humidified incubator for 72 hours prior to assay.
Media was diluted with CellTitre AQueous One Solution (Promega, Australia; Cat # G3580) according to manufacturer's instructions to produce a final concentration of 317 μg/mL.
Cell culture supernatants were then aspirated from wells and replaced with 100 μL of CellTitre solution. Triplicate cell-free control wells containing only CellTitre solution were also included in each assay.
Cells were then incubated at 37° C. with 5% CO2 in a humidified incubator for 1 hour at which time absorbance was read at 490 nm with an EnVision microplate reader (Perkin Elmer, Australia).
When analysing data, background absorbance (taken from cell-free control wells) was subtracted from each reading. […] For each drug concentration the mean (±SEM) is calculated and graphed using GraphPad Prism (version 5). A sigmoidal curved is fitted to the data and used to calculate the IC50 of each compound.

[2] = biological target: T1, Dihydroceramide Desaturase-1 (Des1) (Homo sapiens, UniProt O15121); experiment: Dihydroceramide desaturase-1 (Des1) activity by HPLC in intact Jurkat cells labeled with DhCer-C6-NBD; format: cell-based; conditions: intact Jurkat cells; read-out: Des 1 IC50
T1 construct: These modifications included the use of parental Jurkat cells; endogenous in cells; host or cells: parental Jurkat cells
T1 sequence (O15121 1-323): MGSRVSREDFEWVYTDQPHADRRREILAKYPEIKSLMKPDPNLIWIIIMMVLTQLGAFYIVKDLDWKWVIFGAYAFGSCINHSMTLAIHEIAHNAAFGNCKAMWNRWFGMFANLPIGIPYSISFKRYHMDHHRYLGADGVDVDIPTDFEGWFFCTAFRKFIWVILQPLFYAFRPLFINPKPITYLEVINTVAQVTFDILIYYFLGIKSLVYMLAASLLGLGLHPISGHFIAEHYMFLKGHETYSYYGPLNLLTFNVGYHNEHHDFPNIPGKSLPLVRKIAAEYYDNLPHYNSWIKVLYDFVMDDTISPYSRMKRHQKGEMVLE
Experimental: Measurement of Dihydroceramide Desaturase-1 (Des1) Activity:
These modifications included the use of parental Jurkat cells, 0.5% serum in the culture media, and cell harvesting via centrifugation at 500×g to maximise ceramide extraction. Extracted samples (50 ul) were analysed on a Waters HPLC coupled to a fluorescence detector using a 30 cm C18 reverse-phase column eluted with 1 ml/min 20% H2O and 80% acetonitrile, both with a 0.1% of trifluoroacetic acid.

[3] = biological target: T2, recombinant his tagged human SphK1 (Homo sapiens, UniProt Q9NYA1); experiment: SphK1 activity assay (32P-labelled S1P production); format: biochemical; conditions: 10 μM compound; % of activity compared to control (DMSO vehicle only)
T2 construct: His tag; made in house; host or cells: insect cells (baculovirus system)
Experimental: The SphK assays employed, measure SphK activity through the production of ^32P-labelled S1P following the addition of exogenous Sph and [γ^32P] ATP.
Activities of SphK1 and SphK2 were determined using identical assay conditions with the exception that SphK1 assays used 3 ng/assay recombinant his tagged human SphK1 (made in the lab in a baculovirus system using insect cells), while SphK2 assays used 30 ng/assay recombinant human SphK2 (purchased by Johnson and Johnson).
Compounds were dissolved in DMSO at 10 mM, the mixture was vortexed (and sonicated if necessary). Stock solutions were kept at 4° C. until used.
Aliquots were made containing 100 μM drug compound. These aliquots were then diluted in assay buffer: 100 mM tris/HCl pH 7.4, 100 mM NaCl, 1 mM sodium orthovanadate, 10 mM NaF to make up a 10 μM solution.
Recombinant enzyme was diluted in assay buffer (above) to make up a final concentration of 0.03 ng/μL (SphK1) or 0.33 ng/μL (SphK2).
40 μL recombinant enzyme was added to an Eppendorf® Safe-Lock® microcentrifuge tube. This was followed by the addition of drug compound from prepared aliquots, before adding ATP, [γ^32P]ATP and Sph. Note: ATP stock is made up in 1M Tris pH 7.4 and 200 mM MgCl2. This allows ATP to complex with Mg and be available as a substrate.
The rest of the reaction mixture was then added to the enzyme sample (Table 1). All reactions were performed as triplicates.
Reaction mixture was prepared with sufficient volume to assay all of the required samples. To do this, each of the volumes shown was multiplied by n+1, where n is the number of samples to be assayed. Assay buffer used is made up of 100 mM tris/HCl pH 7.4, 100 mM NaCl, 1 mM sodium orthovanadate and 10 mM NaF.
The mixture was then incubated at 37° C. for 20 min (SphK1)/45 min (SphK2).
To the 100 μL assay mixture, add 270 μl of chloroform/methanol/conc. HCl (100:200:1).
20 μL of 5 M KCl was then added to the assay mixture.
70 μL of chloroform was added to create phase separation. The solution was vortexed to mix well.
The solution was then centrifuged for 5 min at 13,000×g to fully separate the phases.
The upper aqueous/methanol phase was separated by aspiration.
50 μL of the remaining lower chloroform phase […] was applied onto the TLC plate by repeatedly spotting a few microliters of liquid (<5 mm diameter circle) between each sample spot with the pipette tip. The liquid was then allowed to absorb into the plate before drying with a stream of air.
The TLC plate was developed in a glass TLC developing tank with 1-butanol/ethanol/glacial acetic acid/H2O (8:2:1:2) until the mobile phase is within 1 cm of the top of the TLC plate.
The TLC plate was then exposed to a storage phosphor screen overnight. Storage phosphor screens work by capturing images produced by ionising radiation (e.g. ^32P). The phosphorimager stimulates the screen which uses lasers to convert the latent signal to light. Light is proportional to the amount of radioactivity in the sample. The image is then quantified using standard quantification software (ImageQuant™). Whatman paper with the assay mixture dilutions, was included to assist quantification of the phosphor signal.
Once the storage phosphor screen was read using the phosphorimager, S1P spots, which have an Rf of 0.7 with the mobile phase employed, were quantified.
The S1P spot intensity can be converted to the amount of phosphate transferred/min/mg protein.

T2 sequence (Q9NYA1 whole entry): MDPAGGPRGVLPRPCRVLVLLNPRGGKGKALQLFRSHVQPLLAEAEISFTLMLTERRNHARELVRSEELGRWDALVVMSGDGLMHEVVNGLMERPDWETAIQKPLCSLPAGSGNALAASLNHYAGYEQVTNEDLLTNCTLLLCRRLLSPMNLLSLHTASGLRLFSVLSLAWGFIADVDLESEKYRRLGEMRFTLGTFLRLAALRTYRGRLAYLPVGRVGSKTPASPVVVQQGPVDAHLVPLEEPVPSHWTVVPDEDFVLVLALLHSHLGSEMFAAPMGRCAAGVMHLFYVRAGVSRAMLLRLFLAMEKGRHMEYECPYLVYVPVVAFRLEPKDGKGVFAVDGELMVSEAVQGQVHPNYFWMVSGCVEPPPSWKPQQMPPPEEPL

Q: What does the source list for `Oc1ccc(Nc2nc(-c3ccc(Cl)cc3)cs2)cc1` [SKI-II, reference compound]?
A: IC50 [1]: 1000 to 10000 nM; IC50 [2]: 100 to 1000 nM; activity at 10 µM [3]: 50 to 80%
